Measurements taken from PMC10866072, “Design, synthesis, molecular modelling and biological evaluation of novel 6-amino-5-cyano-2-thiopyrimidine derivatives as potent anticancer agents against leukemia and apoptotic inducers” (Journal of Enzyme Inhibition and Medicinal Chemistry, 2024).
Read-outs that look alike come from different tables or passages of the source.

Tests used:
[1] = tested on: NCI-H522; type: cell-based
[2] = tested on: CAKI-1; type: cell-based
[3] = tested on: SF-295; type: cell-based
[4] = molecular target: T1, PI3Kα (Homo sapiens, UniProt P42336); assay: PI3 Kinase Activity/Inhibitor Assay Kit; type: biochemical; conditions: mean of two independent replicates ± SD
T1 construct: purchased Millipore Corporation 17-493 (assay kit)
Procedure: (§1) In vitro PI3 kinases inhibitory activity assay
(§2) All buffers, working standards and samples were prepared.
(§3) A total of 5 μl/well 5X kinase reaction buffer was added following the addition of the substrate, then distilled water was added to fill up to 25 μl. After incubation for 1 h at room temperature, 25 μl of biotinylated PIP3/EDTA working solution was added to all wells except the buffer control. Instead, 25 μl tris-buffered saline (TBS) was added to the buffer control wells. A general receptor phosphoinsitides -1 working solution was added to all wells then, was incubated for 1 h at room temperature. After incubation, all wells were washed with 200 μl 1X TBS -Tween followed by addition of 50 μl (horseradish peroxide as econjugated streptavidin) SA -HRP then were incubated for 1 h at room temperature. All wells were washed using 100 μl 1X TBS -Tween and TBS followed by addition of 100 μl of substrate 3,3’,5,5’-tetramethylbenzidine and kept in dark for 5–20 min.

[5] = tested on: SR; type: cell-based
[6] = tested on: KM12; type: cell-based
[7] = molecular target: T2, PI3Kδ (Homo sapiens, UniProt O00329); assay: PI3 Kinase Activity/Inhibitor Assay Kit; type: biochemical; conditions: mean of two independent replicates ± SD
T2 construct: purchased Millipore Corporation 17-493 (assay kit)
Procedure: as §1, §2, §3

[8] = tested on: SNB-19; type: cell-based
[9] = tested on: HOP-92; type: cell-based
[10] = tested on: SF-539; type: cell-based
[11] = tested on: HS 578T; type: cell-based
[12] = tested on: CNS Cancer cell lines; assay: NCI-60 five-dose, subpanel
Source text: (§4) Furthermore, the average sensitivity of all cell lines to the compound is termed as the full panel mean graph midpoints (MG-MID). The complete panel mean graph midpoints refers to the average sensitivity of all cell lines to the chemical (MG-MID). A measure of a compound’s selectivity for a given cell line is the ratio created by dividing the full panel mean graph midpoints (MG-MID) concentration by the individual subpanel MG-MID concentrations (obtained as the average sensitivity of all the cell lines in a given subpanel to the test compound).
(§5) Assessment of selectivity of a compound depends on the ratio obtained by dividing the full panel MID ^a by their individual subpanel MID ^b (µM) where MID^a is the average sensitivity of all cell lines towards the test agent (µM).

[13] = tested on: OVCAR-5; type: cell-based
[14] = tested on: HOP-62; type: cell-based
[15] = tested on: SN12C; type: cell-based, human; conditions: Homo sapiens, one dose 10^-5 M, 48 h
[16] = tested on: Colon cancer cell lines; assay: NCI-60 five-dose, subpanel
Source text: as §4, §5

[17] = tested on: Ovarian cancer cell lines; assay: NCI-60 five-dose, subpanel
Source text: A measure of a compound’s selectivity for a given cell line is the ratio created by dividing the full panel mean graph midpoints (MG-MID) concentration by the individual subpanel MG-MID concentrations (obtained as the average sensitivity of all the cell lines in a given subpanel to the test compound).
as §5

[18] = tested on: A498; type: cell-based
[19] = tested on: full NCI 60 cell lines panel
[20] = tested on: COLO 205; type: cell-based
[21] = tested on: ACHN; type: cell-based
[22] = tested on: SK-MEL-28; type: cell-based
[23] = tested on: CCRF-CEM; type: cell-based
[24] = tested on: NCI-H460; type: cell-based
[25] = tested on: SF-268; type: cell-based
[26] = Homo sapiens, five-dose, read-out: LC50 (the source's name)
[27] = Homo sapiens, one dose 10^-5 M, 48 h
[28] = Homo sapiens, one dose 10^-5 M, 48 h, read-out: % growth
[29] = Homo sapiens, read-out: GI50 Subpanel MID^b

T2 sequence (O00329 whole entry): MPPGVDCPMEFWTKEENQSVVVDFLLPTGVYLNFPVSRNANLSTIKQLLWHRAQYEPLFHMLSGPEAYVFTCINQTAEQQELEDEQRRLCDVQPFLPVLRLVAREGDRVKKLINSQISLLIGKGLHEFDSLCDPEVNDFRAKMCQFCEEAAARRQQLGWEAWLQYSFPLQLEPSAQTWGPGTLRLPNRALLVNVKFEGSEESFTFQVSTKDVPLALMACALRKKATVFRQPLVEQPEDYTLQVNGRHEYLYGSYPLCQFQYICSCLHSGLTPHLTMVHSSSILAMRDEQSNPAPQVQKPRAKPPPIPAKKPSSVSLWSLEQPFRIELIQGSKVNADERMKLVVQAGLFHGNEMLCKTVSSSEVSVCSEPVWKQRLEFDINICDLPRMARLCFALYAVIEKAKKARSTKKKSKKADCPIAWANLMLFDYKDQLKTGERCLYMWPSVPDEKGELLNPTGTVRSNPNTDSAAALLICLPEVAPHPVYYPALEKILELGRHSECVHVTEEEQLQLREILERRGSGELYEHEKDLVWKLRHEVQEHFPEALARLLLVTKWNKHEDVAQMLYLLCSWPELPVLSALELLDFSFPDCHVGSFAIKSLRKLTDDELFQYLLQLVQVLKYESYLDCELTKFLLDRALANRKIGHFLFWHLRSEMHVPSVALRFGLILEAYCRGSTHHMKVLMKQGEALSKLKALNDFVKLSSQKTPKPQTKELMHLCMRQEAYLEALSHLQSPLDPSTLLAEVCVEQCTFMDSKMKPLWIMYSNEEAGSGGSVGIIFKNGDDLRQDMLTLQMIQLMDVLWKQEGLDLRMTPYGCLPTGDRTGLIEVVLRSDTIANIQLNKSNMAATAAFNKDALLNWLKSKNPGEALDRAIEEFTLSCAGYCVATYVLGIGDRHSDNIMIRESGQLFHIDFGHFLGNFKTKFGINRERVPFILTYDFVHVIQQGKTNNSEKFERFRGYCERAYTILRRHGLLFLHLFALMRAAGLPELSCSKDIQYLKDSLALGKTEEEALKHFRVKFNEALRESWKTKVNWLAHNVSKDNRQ
T2 sequence (P27986 whole entry partner): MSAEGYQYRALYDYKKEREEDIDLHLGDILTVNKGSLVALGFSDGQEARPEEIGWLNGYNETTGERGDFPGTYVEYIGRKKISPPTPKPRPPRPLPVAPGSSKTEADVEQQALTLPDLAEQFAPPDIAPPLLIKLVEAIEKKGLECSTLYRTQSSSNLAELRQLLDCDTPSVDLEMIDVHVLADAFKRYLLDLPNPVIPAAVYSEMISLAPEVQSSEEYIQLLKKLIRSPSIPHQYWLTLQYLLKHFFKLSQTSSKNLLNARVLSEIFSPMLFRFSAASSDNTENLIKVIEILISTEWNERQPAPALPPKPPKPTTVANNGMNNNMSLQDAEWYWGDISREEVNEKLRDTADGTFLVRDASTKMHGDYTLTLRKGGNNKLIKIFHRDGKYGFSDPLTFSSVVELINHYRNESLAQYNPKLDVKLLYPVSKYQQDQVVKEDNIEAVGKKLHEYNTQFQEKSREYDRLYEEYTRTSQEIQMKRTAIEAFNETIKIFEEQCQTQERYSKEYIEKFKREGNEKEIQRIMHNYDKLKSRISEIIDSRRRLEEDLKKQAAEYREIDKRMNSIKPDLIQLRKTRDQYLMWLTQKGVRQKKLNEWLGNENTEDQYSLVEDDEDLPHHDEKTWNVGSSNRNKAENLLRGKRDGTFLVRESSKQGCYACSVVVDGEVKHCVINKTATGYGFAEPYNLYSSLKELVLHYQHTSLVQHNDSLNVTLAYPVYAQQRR
T1 sequence (P42336 whole entry, species assumed): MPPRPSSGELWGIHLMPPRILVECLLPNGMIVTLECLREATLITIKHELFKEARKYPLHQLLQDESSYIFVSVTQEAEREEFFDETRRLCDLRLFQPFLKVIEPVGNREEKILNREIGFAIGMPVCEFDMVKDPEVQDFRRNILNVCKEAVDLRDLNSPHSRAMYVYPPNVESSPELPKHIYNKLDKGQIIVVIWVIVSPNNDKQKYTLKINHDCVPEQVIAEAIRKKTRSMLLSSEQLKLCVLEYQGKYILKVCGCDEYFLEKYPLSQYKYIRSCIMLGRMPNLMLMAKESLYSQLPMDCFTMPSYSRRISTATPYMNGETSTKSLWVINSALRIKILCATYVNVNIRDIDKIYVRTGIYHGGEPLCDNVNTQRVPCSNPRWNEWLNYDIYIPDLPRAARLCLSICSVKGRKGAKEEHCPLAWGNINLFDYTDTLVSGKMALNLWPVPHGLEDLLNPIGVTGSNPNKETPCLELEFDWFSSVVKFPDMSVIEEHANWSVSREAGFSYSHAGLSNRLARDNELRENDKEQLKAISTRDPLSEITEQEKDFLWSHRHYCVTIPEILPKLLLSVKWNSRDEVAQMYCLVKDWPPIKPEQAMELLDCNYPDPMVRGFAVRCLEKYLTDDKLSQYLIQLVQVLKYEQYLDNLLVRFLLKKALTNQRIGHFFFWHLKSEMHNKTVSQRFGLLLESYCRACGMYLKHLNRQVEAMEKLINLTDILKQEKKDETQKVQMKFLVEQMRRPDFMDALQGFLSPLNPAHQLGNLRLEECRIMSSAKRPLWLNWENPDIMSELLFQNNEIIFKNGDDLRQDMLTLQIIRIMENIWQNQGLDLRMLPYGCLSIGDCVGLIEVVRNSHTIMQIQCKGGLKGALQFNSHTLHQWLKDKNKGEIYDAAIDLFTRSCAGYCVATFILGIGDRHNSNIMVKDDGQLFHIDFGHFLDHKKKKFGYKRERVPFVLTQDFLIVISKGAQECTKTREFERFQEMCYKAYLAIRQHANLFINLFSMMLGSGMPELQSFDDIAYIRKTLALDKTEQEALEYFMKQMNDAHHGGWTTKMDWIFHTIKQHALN
T1 sequence (P27986 whole entry partner, species assumed): as the sequence (P27986 whole entry partner) above

N#Cc1c(N)nc(S)nc1-c1ccc(Cl)cc1Cl [Compound 1c, 4-Amino-6–(2,4-dichlorophenyl)-2-mercaptopyrimidine-5-carbonitrile]
GI50 ([1]; Homo sapiens, five-dose): 15.4 µM
CC50 [1, 26]: 61.3 µM
% growth at 10 µM [1, 27]: 49.4%
TGI ([1]; five-dose): 30.70 µM
% growth at 10 µM ([2]; Homo sapiens, CAKI-1, 48 h, one dose 10^-5 M, 48 h): 72.3%
GI50 ([2]; Homo sapiens, five-dose): 18.4 µM
CC50 [2, 26]: > 100 µM
TGI ([2]; five-dose): 45.70 µM
GI50 ([3]; Homo sapiens, five-dose): 10.4 µM
CC50 [3, 26]: 49 µM
% cell growth at 10 µM [3, 27]: 78.1%
TGI ([3]; five-dose): 22.60 µM
IC50 [4]: 0.88 ± 0.005 µM
GI50 ([5]; Homo sapiens, five-dose): 0.14 µM
CC50 [5, 26]: > 100 µM
percent cell growth at 10 µM [5, 27]: 2.54%
TGI ([5]; five-dose): 23.70 µM
GI50 ([6]; Homo sapiens, five-dose): 19 µM
LC50 ([6]; Homo sapiens, five-dose): 80.1 µM
% growth at 10 µM [6, 27]: 49.5%
TGI ([6]; five-dose): 39.00 µM
IC50 [7]: 0.0034 ± 0.004 µM
GI50 ([8]; Homo sapiens, five-dose): 17 µM
CC50 [8, 26]: > 100 µM
activity at 10 µM [8, 28]: 75.4%
TGI ([8]; five-dose): 50.00 µM
GI50 ([9]; Homo sapiens, five-dose): 19.8 µM
LC50 (50% lethal concentration) ([9]; Homo sapiens, five-dose): > 100 µM
% growth at 10 µM [9, 27]: 105%
TGI ([9]; five-dose): 56.40 µM
GI50 ([10]; Homo sapiens, five-dose): 10.8 µM
CC50 [10, 26]: 52.4 µM
% growth at 10 µM [10, 27]: 39.9%
TGI ([10]; five-dose): 23.80 µM
GI50 ([11]; Homo sapiens, five-dose, HS 578 T): 18.8 µM
CC50 ([11]; Homo sapiens, five-dose, HS 578 T, read-out: LC50 (the source's name)): > 100 µM
activity at 10 µM ([11]; Homo sapiens, one dose 10^-5 M, 48 h, HS 578T, read-out: % growth): 75.3%
TGI ([11]; five-dose, HS 578 T): 92.60 µM
Selectivity ratio (full panel MID^a / subpanel MID^b, GI50 level) ([12]; CNS cancer): 1.04
GI50 [12, 29]: 12.4 µM
GI50 ([13]; Homo sapiens, five-dose): 16.4 µM
CC50 [13, 26]: 63.2 µM
percent cell growth at 10 µM [13, 27]: 93.5%
TGI ([13]; five-dose): 32.20 µM
GI50 ([14]; Homo sapiens, five-dose): 18.2 µM
LC50 (concentration killing 50% of cells) ([14]; Homo sapiens, five-dose): 88.6 µM
% growth at 10 µM [14, 27]: 81.3%
TGI ([14]; five-dose): 40.20 µM
% growth at 10 µM [15]: 62.1%
GI50 [16, 29]: 10.9 µM
Selectivity ratio (full panel MID^a / subpanel MID^b, GI50 level) ([16]; colon cancer): 1.2
GI50 [17, 29]: 19.2 µM
Selectivity ratio (full panel MID^a / subpanel MID^b, GI50 level) ([17]; ovarian cancer): 0.7
GI50 ([18]; Homo sapiens, five-dose): 19.8 µM
LC50 ([18]; Homo sapiens, five-dose): 78.5 µM
% growth at 10 µM [18, 27]: 137%
TGI ([18]; five-dose): 39.40 µM
activity at 10 µM ([19]; Homo sapiens, 60 cell, 48 h, read-out: Mean % growth): 53.3%
CC50 ([19]; Homo sapiens, 60 cell, read-out: LC50 values (MG-MID)): 77.6 µM
GI50 ([19]; Homo sapiens, 60 cell, read-out: MID^a, average sensitivity of all cell lines (GI50)): 12.9 µM
GI50 ([19]; Homo sapiens, 60 cell, read-out: full panel GI50 (MG-MID)): 6.76 µM
log10 GI50, range over all 60 cell lines ([19]; five-dose): −4.50 to −7.25
% growth values, cell lines with lethal effect ([19]; one dose, range over those cell lines): −18.77 to −49.21%
GI50 ([20]; Homo sapiens, five-dose): 19 µM
CC50 [20, 26]: 70 µM
% growth at 10 µM [20, 27]: 80.5%
TGI ([20]; five-dose): 36.50 µM
GI50 ([21]; Homo sapiens, five-dose): 16.5 µM
CC50 [21, 26]: 62.1 µM
% growth at 10 µM [21, 27]: 19.6%
TGI ([21]; five-dose): 32.00 µM
GI50 ([22]; Homo sapiens, five-dose): 15.2 µM
CC50 [22, 26]: 60.7 µM
% cell growth at 10 µM [22, 27]: 57.7%
TGI ([22]; five-dose): 30.40 µM
GI50 ([23]; Homo sapiens, five-dose): 0.3 µM
LC50 (concentration killing 50% of tumour cells) ([23]; Homo sapiens, five-dose): > 100 µM
% cell growth at 10 µM [23, 27]: 7.65%
TGI ([23]; five-dose): 16.10 µM
GI50 ([24]; Homo sapiens, five-dose): 22.1 µM
CC50 [24, 26]: > 100 µM
activity at 10 µM [24, 28]: 82.6%
TGI ([24]; five-dose): 56.80 µM
GI50 ([25]; Homo sapiens, five-dose): 18.1 µM
CC50 [25, 26]: > 100 µM
activity at 10 µM [25, 28]: 51%
TGI ([25]; five-dose): 52.70 µM
